ChEMBL document CHEMBL1133215, “Natural and synthetic analogues of actinomycin D as Grb2-SH2 domain blockers” (Bioorg Med Chem Lett, 2000)
pIC50: −log10 of the molar value. Active and inactive are the calls of the source. No cut-off for these calls is given here. Numbered stars: 1 amine (or outer) side, 2 acyl side, 3 side chain; on linkers, the order of the positions; unused ones are H or OH. Bridge positions count the residues as written; N and C are the ends. Square brackets hold non-standard residues; d marks the D form. Peptide text beside a SMILES is read from it. I, II: the chains in the order shown. Actinocin(1to9) = Cc1c2oc3c(C)ccc(C(=O)[*:2])c3nc-2c(C(=O)[*:1])c(N)c1=O; NMeV = CN[C@H](C(=O)O)C(C)C; Sar = CNCC(=O)O

Experiments:
[1] = target: Growth factor receptor-bound protein 2 (Mus musculus) (UniProt Q60631); assay: In vitro inhibitory activity against Shc/Grb2 interactions in B104-1-1 cells at 2 uM; format: functional, cell-based
Sequence of Growth factor receptor-bound protein 2 (Mus musculus) (Q60631 whole entry): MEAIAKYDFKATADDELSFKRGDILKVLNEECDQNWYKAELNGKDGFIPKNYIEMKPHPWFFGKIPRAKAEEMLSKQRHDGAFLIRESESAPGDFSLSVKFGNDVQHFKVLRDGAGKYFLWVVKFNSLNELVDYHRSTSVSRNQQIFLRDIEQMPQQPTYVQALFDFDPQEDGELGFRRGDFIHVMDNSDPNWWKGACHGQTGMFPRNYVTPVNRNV

[2] = target: Growth factor receptor-bound protein 2 (Mus musculus) (UniProt Q60631); assay: In vitro inhibitory activity against Shc/Grb2 interactions in B104-1-1 cells at 5 uM; format: functional, cell-based
B104 [3] = assay: Growth inhibitory activity was tested against B104-1-1 cells; format: functional, Mus musculus
[4] = target: Growth factor receptor-bound protein 2 (Mus musculus, UniProt Q60631); assay: In vitro binding assay of Shc-derived phosphopeptide to Growth factor receptor bound protein 2 SH2 in B104-1-1 cells was determined; format: cell-based
Sequence of Growth factor receptor-bound protein 2 (Q60631 whole entry): as above

B104 [5] = assay: Growth inhibitory activity against B104-1-1 cells; Not active; format: functional, cell-based; details: Mus musculus

SMILES	inhibition [1] [%]	inhibition [2] [%]	pIC50 [4]	GI50 (B104 [3]) [nM]	GI50 (B104 [5])
CC[C@@H](C)[C@H]1NC(=O)CN(C)C(=O)[C@@H]2CCCN2C(=O)[C@@H]([C@H](C)CC)NC(=O)[C@@H](NC(=O)c2c3nc4c(C(=O)N[C@@H]5C(=O)N[C@H]([C@H](C)CC)C(=O)N6CCC[C@H]6C(=O)N(C)CC(=O)N[C@H]([C@H](C)CC)C(=O)O[C@@H]5C)ccc(C)c4oc-3c(C)c(=O)c2N)[C@@H](C)OC1=O	15.1	25.3	5.12	1	–
Cc1c2oc3c(C)ccc(C(=O)N[C@@H]4C(=O)N[C@H](C(C)C)C(=O)N5CCC[C@H]5C(=O)N(C)CC(=O)N[C@@H](Cc5ccc(O)cc5)C(=O)O[C@@H]4C)c3nc-2c(C(=O)N[C@@H]2C(=O)N[C@H](C(C)C)C(=O)N3CCC[C@H]3C(=O)N(C)CC(=O)N[C@@H](Cc3ccc(O)cc3)C(=O)O[C@@H]2C)c(N)c1=O (stereo in doubt; 8) [listing 1 of 2 here]	15.9	28.5	–	–	–
Cc1c2oc3c(C)ccc(C(=O)N[C@@H]4C(=O)N[C@H](C(C)C)C(=O)N5CCC[C@H]5C(=O)N(C)CC(=O)N[C@H](C(C)C)C(=O)O[C@@H]4C)c3nc-2c(C(=O)N[C@@H]2C(=O)N[C@H](C(C)C)C(=O)N3CCC[C@H]3C(=O)N(C)CC(=O)N[C@H](C(C)C)C(=O)O[C@@H]2C)c(N)c1=O	72	86	6.00	3	–
Cc1c2oc3c(C)ccc(C(=O)N[C@@H]4C(=O)N[C@H](C(C)C)C(=O)N5CCC[C@H]5C(=O)N(C)CC(=O)N[C@@H](Cc5ccc(O)cc5)C(=O)O[C@@H]4C)c3nc-2c(C(=O)N[C@@H]2C(=O)N[C@H](C(C)C)C(=O)N3CCC[C@H]3C(=O)N(C)CC(=O)N[C@@H](Cc3ccc(O)cc3)C(=O)O[C@@H]2C)c(N)c1=O (stereo in doubt; 10) [listing 1 of 2 here]	75.9	89.7	–	–	–
Cc1c2oc3c(C)ccc(C(=O)N[C@@H]4C(=O)N[C@H](C(C)C)C(=O)N5CCC[C@H]5C(=O)N(C)CC(=O)N[C@H](Cc5ccc(O)cc5)C(=O)O[C@@H]4C)c3nc-2c(C(=O)N[C@@H]2C(=O)N[C@H](C(C)C)C(=O)N3CCC[C@H]3C(=O)N(C)CC(=O)N[C@H](Cc3ccc(O)cc3)C(=O)O[C@@H]2C)c(N)c1=O (stereo in doubt; 5) [listing 2 of 2 here]	3.5	27.4	–	–	inactive
COc1ccc(C[C@H]2NC(=O)CN(C)C(=O)[C@@H]3CCCN3C(=O)[C@@H](C(C)C)NC(=O)[C@@H](NC(=O)c3c4nc5c(C(=O)N[C@@H]6C(=O)N[C@H](C(C)C)C(=O)N7CCC[C@H]7C(=O)N(C)CC(=O)N[C@H](Cc7ccc(OC)cc7)C(=O)O[C@@H]6C)ccc(C)c5oc-4c(C)c(=O)c3N)[C@@H](C)OC2=O)cc1	46.9	73	5.70	–	–
Cc1c2oc3c(C)ccc(C(=O)N[C@@H]4C(=O)N[C@H](C(C)C)C(=O)N5CCC[C@H]5C(=O)N(C)CC(=O)N[C@@H](Cc5ccc(O)cc5)C(=O)O[C@@H]4C)c3nc-2c(C(=O)N[C@@H]2C(=O)N[C@H](C(C)C)C(=O)N3CCC[C@H]3C(=O)N(C)CC(=O)N[C@@H](Cc3ccc(O)cc3)C(=O)O[C@@H]2C)c(N)c1=O (stereo in doubt; 8) [listing 2 of 2 here]	–	–	< 5.00	–	–
Cc1c2oc3c(C)ccc(C(=O)N[C@@H]4C(=O)N[C@H](C(C)C)C(=O)N5CCC[C@H]5C(=O)N(C)CC(=O)N(C)[C@@H](C(C)C)C(=O)O[C@@H]4C)c3nc-2c(C(=O)N[C@@H]2C(=O)N[C@H](C(C)C)C(=O)N3CCC[C@H]3C(=O)N(C)CC(=O)N(C)[C@@H](C(C)C)C(=O)O[C@@H]2C)c(N)c1=O [DACTINOMYCIN] (I: T[dV]P[Sar][NMeV] / II: T[dV]P[Sar][NMeV]; ester I:1-I:C, II:1-II:C; linker I:N-II:N via Actinocin(1to9))	40.1	50.5	5.30	0.7	–
Cc1c2oc3c(C)ccc(C(=O)N[C@@H]4C(=O)N[C@H](Cc5ccccc5)C(=O)N5CCC[C@H]5C(=O)N(C)CC(=O)N[C@@H](C(C)C)C(=O)O[C@@H]4C)c3nc-2c(C(=O)N[C@@H]2C(=O)N[C@H](Cc3ccccc3)C(=O)N3CCC[C@H]3C(=O)N(C)CC(=O)N[C@@H](C(C)C)C(=O)O[C@@H]2C)c(N)c1=O	73.6	82.8	5.92	8	–
Cc1c2oc3c(C)ccc(C(=O)N[C@@H]4C(=O)N[C@H](C(C)C)C(=O)N5CCC[C@H]5C(=O)N(C)CC(=O)N[C@@H](Cc5ccccc5)C(=O)O[C@@H]4C)c3nc-2c(C(=O)N[C@@H]2C(=O)N[C@H](C(C)C)C(=O)N3CCC[C@H]3C(=O)N(C)CC(=O)N[C@@H](Cc3ccccc3)C(=O)O[C@@H]2C)c(N)c1=O	56.8	78.8	5.74	–	–

The next lines start with results.

inhibition [1] [%]	inhibition [2] [%]	pIC50 [4]	SMILES	GI50 (B104 [3]) [nM]	GI50 (B104 [5])
79.9	90.2	–	Cc1c2oc3c(C)ccc(C(=O)N[C@@H]4C(=O)N[C@H](C(C)C)C(=O)N5CCC[C@H]5C(=O)N(C)CC(=O)N[C@H](Cc5ccc(O)cc5)C(=O)O[C@@H]4C)c3nc-2c(C(=O)N[C@@H]2C(=O)N[C@H](C(C)C)C(=O)N3CCC[C@H]3C(=O)N(C)CC(=O)N[C@H](Cc3ccc(O)cc3)C(=O)O[C@@H]2C)c(N)c1=O (stereo in doubt; 12) [listing 1 of 2 here]	–	–
–	–	6.30	Cc1c2oc3c(C)ccc(C(=O)N[C@@H]4C(=O)N[C@H](Cc5ccc(O)cc5)C(=O)N5CCC[C@H]5C(=O)N(C)CC(=O)N[C@@H](C(C)C)C(=O)O[C@@H]4C)c3nc-2c(C(=O)N[C@@H]2C(=O)N[C@H](Cc3ccc(O)cc3)C(=O)N3CCC[C@H]3C(=O)N(C)CC(=O)N[C@@H](C(C)C)C(=O)O[C@@H]2C)c(N)c1=O (stereo in doubt; 1) [listing 1 of 2 here]	–	–
69.7	80.6	5.82	COc1ccc(C[C@H]2NC(=O)[C@@H](NC(=O)c3c4nc5c(C(=O)N[C@@H]6C(=O)N[C@H](Cc7ccc(OC)cc7)C(=O)N7CCC[C@H]7C(=O)N(C)CC(=O)N[C@@H](C(C)C)C(=O)O[C@@H]6C)ccc(C)c5oc-4c(C)c(=O)c3N)[C@@H](C)OC(=O)[C@H](C(C)C)NC(=O)CN(C)C(=O)[C@@H]3CCCN3C2=O)cc1	10	–
30.9	40.8	5.23	CC[C@@H](C)[C@H]1NC(=O)[C@@H](NC(=O)c2c3nc4c(C(=O)N[C@@H]5C(=O)N[C@H]([C@H](C)CC)C(=O)N6CCC[C@H]6C(=O)N(C)CC(=O)N[C@@H](C(C)C)C(=O)O[C@@H]5C)ccc(C)c4oc-3c(C)c(=O)c2N)[C@@H](C)OC(=O)[C@H](C(C)C)NC(=O)CN(C)C(=O)[C@@H]2CCCN2C1=O	0.8	–
–	–	6.10	Cc1c2oc3c(C)ccc(C(=O)N[C@@H]4C(=O)N[C@H](C(C)C)C(=O)N5CCC[C@H]5C(=O)N(C)CC(=O)N[C@H](Cc5ccc(O)cc5)C(=O)O[C@@H]4C)c3nc-2c(C(=O)N[C@@H]2C(=O)N[C@H](C(C)C)C(=O)N3CCC[C@H]3C(=O)N(C)CC(=O)N[C@H](Cc3ccc(O)cc3)C(=O)O[C@@H]2C)c(N)c1=O (stereo in doubt; 12) [listing 2 of 2 here]	–	–
–	–	< 5.00	Cc1c2oc3c(C)ccc(C(=O)N[C@@H]4C(=O)N[C@H](C(C)C)C(=O)N5CCC[C@H]5C(=O)N(C)CC(=O)N[C@H](Cc5ccc(O)cc5)C(=O)O[C@@H]4C)c3nc-2c(C(=O)N[C@@H]2C(=O)N[C@H](C(C)C)C(=O)N3CCC[C@H]3C(=O)N(C)CC(=O)N[C@H](Cc3ccc(O)cc3)C(=O)O[C@@H]2C)c(N)c1=O (stereo in doubt; 5) [listing 1 of 2 here]	–	–
42.9	56.6	–	Cc1c2oc3c(C)ccc(C(=O)N[C@@H]4C(=O)N[C@H](Cc5ccc(O)cc5)C(=O)N5CCC[C@H]5C(=O)N(C)CC(=O)N[C@@H](C(C)C)C(=O)O[C@@H]4C)c3nc-2c(C(=O)N[C@@H]2C(=O)N[C@H](Cc3ccc(O)cc3)C(=O)N3CCC[C@H]3C(=O)N(C)CC(=O)N[C@@H](C(C)C)C(=O)O[C@@H]2C)c(N)c1=O (stereo in doubt; 7) [listing 1 of 2 here]	–	–
–	–	5.35	Cc1c2oc3c(C)ccc(C(=O)N[C@@H]4C(=O)N[C@H](Cc5ccc(O)cc5)C(=O)N5CCC[C@H]5C(=O)N(C)CC(=O)N[C@@H](C(C)C)C(=O)O[C@@H]4C)c3nc-2c(C(=O)N[C@@H]2C(=O)N[C@H](Cc3ccc(O)cc3)C(=O)N3CCC[C@H]3C(=O)N(C)CC(=O)N[C@@H](C(C)C)C(=O)O[C@@H]2C)c(N)c1=O (stereo in doubt; 7) [listing 2 of 2 here]	–	–
–	–	6.10	Cc1c2oc3c(C)ccc(C(=O)N[C@@H]4C(=O)N[C@H](C(C)C)C(=O)N5CCC[C@H]5C(=O)N(C)CC(=O)N[C@@H](Cc5ccc(O)cc5)C(=O)O[C@@H]4C)c3nc-2c(C(=O)N[C@@H]2C(=O)N[C@H](C(C)C)C(=O)N3CCC[C@H]3C(=O)N(C)CC(=O)N[C@@H](Cc3ccc(O)cc3)C(=O)O[C@@H]2C)c(N)c1=O (stereo in doubt; 10) [listing 2 of 2 here]	–	–
75.1	87.7	6.05	Cc1c2oc3c(C)ccc(C(=O)N[C@@H]4C(=O)N[C@H](C(C)C)C(=O)N5CCC[C@H]5C(=O)N(C)CC(=O)N[C@H](Cc5ccccc5)C(=O)O[C@@H]4C)c3nc-2c(C(=O)N[C@@H]2C(=O)N[C@H](C(C)C)C(=O)N3CCC[C@H]3C(=O)N(C)CC(=O)N[C@H](Cc3ccccc3)C(=O)O[C@@H]2C)c(N)c1=O	3	–
55.1	73.8	5.70	COc1ccc(C[C@@H]2NC(=O)CN(C)C(=O)[C@@H]3CCCN3C(=O)[C@@H](C(C)C)NC(=O)[C@@H](NC(=O)c3c4nc5c(C(=O)N[C@@H]6C(=O)N[C@H](C(C)C)C(=O)N7CCC[C@H]7C(=O)N(C)CC(=O)N[C@@H](Cc7ccc(OC)cc7)C(=O)O[C@@H]6C)ccc(C)c5oc-4c(C)c(=O)c3N)[C@@H](C)OC2=O)cc1	–	–
84.3	90.7	–	Cc1c2oc3c(C)ccc(C(=O)N[C@@H]4C(=O)N[C@H](Cc5ccc(O)cc5)C(=O)N5CCC[C@H]5C(=O)N(C)CC(=O)N[C@@H](C(C)C)C(=O)O[C@@H]4C)c3nc-2c(C(=O)N[C@@H]2C(=O)N[C@H](Cc3ccc(O)cc3)C(=O)N3CCC[C@H]3C(=O)N(C)CC(=O)N[C@@H](C(C)C)C(=O)O[C@@H]2C)c(N)c1=O (stereo in doubt; 1) [listing 2 of 2 here]	–	inactive
